{
  "source": "patent US10334869B2",
  "about": "“Method for increasing concentration of avenanthramides in oats” (HER MAJESTY THE QUEEN IN RIGHT OF CANADA, AS REPRESENTED BY …, priority 2009, dated 2019)",
  "key": {"[1]": {"system": "dormant oat VAO-48", "assay": "CaCl2 in anaerobic steep water, avenanthramide accumulation during false malting of VAO-48", "assay_type": "in vivo", "conditions": "for All others / Avenanth A / Avenanth B / Avenanth C / Total Avenanth: four days 30° C., avenanthramide A equivalents", "protocol": "(§1) In a third method, samples (10 μl) were injected into a C18 reversed-phase column (Zorbax Stable™ bond C18, 3.5 μm, 4.6 mm×150 mm) maintained at 30° C. Solvents for HPLC were A: methanol, B: water and C: 0.5M formic acid. The solvent gradient (vol. %) consisted of 45A:45B:10C, linearly increasing to 55A:35B:10C over 24 min, and linearly increasing to 70A:20B:10C over 9 min, then reaching 95A:5C over 3 min and holding for 3 min. The solvent gradient was brought back to original conditions over 3 min, allowed equilibrating for 3 min.\n(§2) Individual avenanthramides were quantified by determining the peak areas at 330 nm relative to an external authentic avenanthramide A standard and expressed as avenanthramide A weight equivalents. Total avenanthramides were calculated by summing all the individual avenanthramide quantities calculated as avenanthramide A weight equivalents and expressed as parts per million (ppm) avenanthramide A equivalents on a dry weight basis.\n25 g samples of the hulless, hairless, dormant oat VAO-48 was anaerobically steeped in either water or various concentrations of USP-grade CaCl2.(H2O)2 solutions at 35° C. After steeping for 18 hours and air drying in a seed dryer for about four hours, the seeds were surface sterilized as above then ‘false malted” using Petri dishes (150×50 mm) in the dark at 30° C. in a controlled temperature oven for four days. The germination rate in all cases was less than 1% after four days. After malting the seeds were removed, dried at room temperature (forced air) for four hours then brought to constant weight by drying at 37° C. for ˜40 hours and stored at −20° C. until analyzed for avenanthramide content by the third method described above (μg avenanthramide A equivalents/g dry wt=ppm avenanthramide A), and compared to un-malted material."}, "[2]": {"system": "non-dormant oat VAO-22", "assay": "CaCl2 in anaerobic steep water, avenanthramide accumulation during false malting of VAO-22", "assay_type": "in vivo", "conditions": "for All others / Avenanth A / Avenanth B / Avenanth C / Total Avenanth: four days 30° C., avenanthramide A equivalents", "protocol": "as §1, §2\nA 1,300 g sample of VAO-22 hulless, hairless, non-dormant oat breeder's seed was used (84% germination rate after four days). The seeds were then heat treated as in Example 5. A 25 g sample was used as a control representing the un-malted seeds and stored at −20° C. until analyzed. The rest of the heat treated material was anaerobically steeped at 35° C. in either 1.0% or 2.0% Ca Cl2.(H2O)2 for 18 hours and air drying in a seed dryer for about four hours. The seeds were then surface sterilized as above and ‘false malted” in the dark at 30° C. in a controlled temperature oven for four days using Petri dishes (150×50 mm). After malting the seeds were removed, dried at room temperature (forced air) for four hours then brought to constant weight by drying at 37° C. for ˜40 hours and stored at −20° C. until analyzed for avenanthramide content by HPLC using the third method described above (μg avenanthramide A equivalents/g dry wt=ppm avenanthramide A), and compared to un-malted material."}, "[3]": {"system": "smooth muscle cells", "conditions": "about 40 ppm; rat; cited from earlier work"}, "[4]": {"system": "smooth muscle cells", "conditions": "about 40 ppm; human; cited from earlier work"}, "[5]": {"system": "colonic cancer cell lines", "conditions": "about 20 to 50 ppm; cited from earlier work"}, "[6]": {"system": "normal cell lines", "conditions": "about 20 to 50 ppm; cited from earlier work"}, "[7]": {"system": "heat treated oats", "assay": "germination of heat treated oats incubated with gibberellin", "assay_type": "in vivo, oats (VAO-2)", "conditions": "100 ppm gibberellin, 5 days; two-phase dry heated oats"}},
  "note": "Read-outs that look alike come from different tables or passages of the source.",
  "data": [
    {"molecule": "O.O.[Ca+2].[Cl-].[Cl-]", "note": "[CaCl2, CaCl2.(H2O)2]", "values": [
      {"measurement": "All others", "setting": "[1]; 0.05% CaCl2 in steeping water", "result": "287.3 ± 30.9", "unit": "ppm"},
      {"measurement": "Avenanth A", "setting": "[1]; 0.05% CaCl2 in steeping water", "result": "37.7 ± 5.6", "unit": "ppm"},
      {"measurement": "Avenanth B", "setting": "[1]; 0.05% CaCl2 in steeping water", "result": "122.0 ± 14.8", "unit": "ppm"},
      {"measurement": "Avenanth C", "setting": "[1]; 0.05% CaCl2 in steeping water", "result": "81.5 ± 9.4", "unit": "ppm"},
      {"measurement": "Total Avenanth", "setting": "[1]; 0.05% CaCl2 in steeping water", "result": "528.4 ± 30.9", "unit": "ppm"},
      {"measurement": "All others", "setting": "[1]; 0.10% CaCl2 in steeping water", "result": "251.4 ± 10.4", "unit": "ppm"},
      {"measurement": "Avenanth A", "setting": "[1]; 0.10% CaCl2 in steeping water", "result": "27.2 ± 11.4", "unit": "ppm"},
      {"measurement": "Avenanth B", "setting": "[1]; 0.10% CaCl2 in steeping water", "result": "113.4 ± 5.8", "unit": "ppm"},
      {"measurement": "Avenanth C", "setting": "[1]; 0.10% CaCl2 in steeping water", "result": "75.7 ± 4.6", "unit": "ppm"},
      {"measurement": "Total Avenanth", "setting": "[1]; 0.10% CaCl2 in steeping water", "result": "467.7 ± 32.1", "unit": "ppm"},
      {"measurement": "All others", "setting": "[1]; 0.50% CaCl2 in steeping water", "result": "400.1 ± 0.3", "unit": "ppm"},
      {"measurement": "Avenanth A", "setting": "[1]; 0.50% CaCl2 in steeping water", "result": "59.9 ± 1.1", "unit": "ppm"},
      {"measurement": "Avenanth B", "setting": "[1]; 0.50% CaCl2 in steeping water", "result": "155.3 ± 2.3", "unit": "ppm"},
      {"measurement": "Avenanth C", "setting": "[1]; 0.50% CaCl2 in steeping water", "result": "126.4 ± 2.8", "unit": "ppm"},
      {"measurement": "Total Avenanth", "setting": "[1]; 0.50% CaCl2 in steeping water", "result": "741.7 ± 6.5", "unit": "ppm"},
      {"measurement": "overall increase of avenanthramide concentration over un-malted seeds", "setting": "[1]; 1% Ca+2", "result": "about 23.6 fold"},
      {"measurement": "All others", "setting": "[1]; 1.0% CaCl2 in steeping water", "result": "401.1 ± 15.4", "unit": "ppm"},
      {"measurement": "Avenanth A", "setting": "[1]; 1.0% CaCl2 in steeping water", "result": "68.7 ± 3.3", "unit": "ppm"},
      {"measurement": "Avenanth B", "setting": "[1]; 1.0% CaCl2 in steeping water", "result": "149.0 ± 8.2", "unit": "ppm"},
      {"measurement": "Avenanth C", "setting": "[1]; 1.0% CaCl2 in steeping water", "result": "138.1 ± 4.0", "unit": "ppm"},
      {"measurement": "Total Avenanth", "setting": "[1]; 1.0% CaCl2 in steeping water", "result": "757.0 ± 30.9", "unit": "ppm"},
      {"measurement": "increase of avenanthramide concentration over steeping with no added Ca+2", "setting": "[1]; 1% added Ca+2", "result": "approximately 1.7 fold"},
      {"measurement": "avenanthramide B fold over initial value", "setting": "[2]; 1% CaCl2", "result": 23.4, "unit": "fold"},
      {"measurement": "avenanthramide B increase over initial value", "setting": "[2]; 1% CaCl2", "result": "2,240%"},
      {"measurement": "avenanthramide C fold over initial", "setting": "[2]; 1% CaCl2", "result": 28.4, "unit": "fold"},
      {"measurement": "avenanthramide C increase over initial", "setting": "[2]; 1% CaCl2", "result": "2,735%"},
      {"measurement": "total avenanthramide fold over initial", "setting": "[2]; 1% CaCl2", "result": 24.1, "unit": "fold"},
      {"measurement": "total avenanthramide levels relative to initial", "setting": "[2]; 1% CaCl2", "result": "2,307%"},
      {"measurement": "All others", "setting": "[2]; 1.0% CaCl2 in steeping water", "result": "360.1 ± 2.4", "unit": "ppm"},
      {"measurement": "Avenanth A", "setting": "[2]; 1.0% CaCl2 in steeping water", "result": "27.0 ± 0.22", "unit": "ppm"},
      {"measurement": "Avenanth B", "setting": "[2]; 1.0% CaCl2 in steeping water", "result": "79.7 ± 0.26", "unit": "ppm"},
      {"measurement": "Avenanth C", "setting": "[2]; 1.0% CaCl2 in steeping water", "result": "65.2 ± 0.26", "unit": "ppm"},
      {"measurement": "Total Avenanth", "setting": "[2]; 1.0% CaCl2 in steeping water", "result": "532.0 ± 3.16", "unit": "ppm"},
      {"measurement": "avenanthramide B fold over initial", "setting": "[2]; 2% CaCl2", "result": 30.3, "unit": "fold"},
      {"measurement": "avenanthramide B increase over initial value", "setting": "[2]; 2% CaCl2", "result": "2,930%"},
      {"measurement": "avenanthramide C fold over initial", "setting": "[2]; 2% CaCl2", "result": 43.5, "unit": "fold"},
      {"measurement": "avenanthramide C increase over initial", "setting": "[2]; 2% CaCl2", "result": "4,252%"},
      {"measurement": "total avenanthramide fold over initial", "setting": "[2]; 2% CaCl2", "result": 31.9, "unit": "fold"},
      {"measurement": "total avenanthramide levels relative to initial", "setting": "[2]; 2% CaCl2", "result": "3,190%"},
      {"measurement": "All others", "setting": "[2]; 2.0% CaCl2 in steeping water", "result": "461.7 ± 8.8", "unit": "ppm"},
      {"measurement": "Avenanth A", "setting": "[2]; 2.0% CaCl2 in steeping water", "result": "46.7 ± 0.08", "unit": "ppm"},
      {"measurement": "Avenanth B", "setting": "[2]; 2.0% CaCl2 in steeping water", "result": "103.0 ± 0.06", "unit": "ppm"},
      {"measurement": "Avenanth C", "setting": "[2]; 2.0% CaCl2 in steeping water", "result": "100.1 ± 0.38", "unit": "ppm"},
      {"measurement": "Total Avenanth", "setting": "[2]; 2.0% CaCl2 in steeping water", "result": "711.4 ± 9.32", "unit": "ppm"}
    ]},
    {"molecule": "O=C(/C=C/c1ccc(O)c(O)c1)Nc1ccc(O)cc1C(=O)O", "note": "[avenanthramide C]", "values": [
      {"measurement": "nitric oxide production", "setting": "[3]", "result": "inhibit"},
      {"measurement": "proliferation of smooth muscle cells", "setting": "[3]", "result": "inhibit the proliferation"},
      {"measurement": "nitric oxide production", "setting": "[4]", "result": "inhibit"},
      {"measurement": "proliferation of smooth muscle cells", "setting": "[4]", "result": "inhibit the proliferation"},
      {"measurement": "anti-inflammatory activity", "setting": "[5]", "result": "anti-inflammatory"},
      {"measurement": "anti-proliferative activity", "setting": "[5]", "result": "anti-proliferative activity"},
      {"measurement": "effect on normal cell lines", "setting": "[6]", "result": "no effect"}
    ]},
    {"molecule": "gibberellin", "values": [
      {"measurement": "germination", "setting": "[7]", "result": "almost complete restoration of germination"}
    ]}
  ]
}
